Where “and” joins values, the source holds several entries; their conditions need not be identical. Equal entries are not always repeated.
Assays:
[1] = Toxicity evaluated according to the NCI-CTC criteria version 4; assay type: in vivo, human
Description: (§1) Responses were evaluated between 4 and 6 weeks post-salvage regimen. Patients in response (CR, CRi or PR) were allowed to receive a second cycle as consolidation. Toxicity was evaluated according to the NCI-CTC criteria version 4. Cytologic, phenotypic, karyotype and BCR-ABL1 (for Ph+B-ALL) molecular analyses were performed on blood samples and/or BM aspirates by standard methods.

[2] = tested on: relapsed/refractory CD22+B-ALL; experiment: Prospective Phase 2 study of epratuzumab added to vincristine and dexamethasone (salvage chemoimmunotherapy); assay type: in vivo, human
Description: Here, we have evaluated the addition of epratuzumab (hLL2, 360 mg/m^2/d iv on days 1, 8, 15, and 22) to the combination of vincristine (2 mg iv, days 1, 8, 15 and 22) and dexamethasone (40 mg/d po, days 1, 8, 15, and 22) in patients >55 years old, with relapsed/refractory CD22+B-ALL. Dexamethasone was administered before epratuzumab administration+paracetamol 1 g as prophylaxis in order to prevent epratuzumab infusion reactions. Also, intrathecal injections of methotrexate 15 mg, aracytine 40 mg, and depomedrol 40 mg were recommended on days 1 and 8.
This prospective Phase 2 study was conducted at 6 French centers and was approved by the Brest ethical committee and the clinical trial department of the “Agence Française de Sécurité Sanitaire des Produits de Santé” (AFSSAPS). This trial is registered as NCT01219816. Epratuzumab was supplied by Immunomedics, Inc. (Morris Plains, N.J., USA). Written informed consent was obtained from each patient.
The main objective of the study was the CR rate defined by patients reaching CR+CR without platelets recovery (CRi). CR was defined as <5% marrow blasts, neutrophils >1×10^9/L, platelets >100×10^9/L and no evidence of extramedullary disease. CRi was defined similarly but without recovery of platelets counts. Partial response (PR) was defined as a decrease of >50% of blasts in the bone marrow.
as §1
Over a three year period, 26 patients were enrolled. One case was excluded because of progression before receiving the treatment, while 2 younger patients were inappropriately included (person in fourth relapse and a person with refractory second relapse). All the 25 treated patients were considered for analysis.

Leukemic blasts = experiment: Minimal residual disease (MRD) evaluated by flow cytometry on bone marrow samples; assay type: in vivo, human
Description: FIG. 1A. Minimal residual disease (MRD) evaluated by flow cytometry. All patients were monitored for CD22 expression before treatment and then for phenotypic MRD. Leukemic blasts were evaluated using a 8 colors panel including antibodies to CD45, CD19, CD10, CD34, CD38, CD58, CD20 and CD22. MRD was assessed, concomitantly to responses, between 4 and 6 weeks after beginning the salvage regimen using flow cytometry (FACS CANTO II, BD, Biosciences, San Jose, Calif.) performed on bone marrow samples. Two different anti-CD22 antibodies were used. The RFB4 antibody (PE conjugated, Invitrogen, Camarillo, Calif.) and epratuzumab bind competitively to CD22, meaning that in the presence of epratuzumab, RFB4 binding is blocked. By contrast, the SHCL-1 antibody (PE or PerCp-Cy5.5 conjugated, BD Biosciences, San Jose, Calif.) binds to a non-crossblocking epitope and can be used to assess the modulation of the CD22 antigen on the blasts surface. […] Case 1: An example of positive MRD. Leukemic blasts were both CD22-RFB4 and CD22-SHCL-1 positive before treatment. After treatment, the percentage of blasts is estimated at 0.05%.
FIG. 1B. Minimal residual disease (MRD) evaluated by flow cytometry. All patients were monitored for CD22 expression before treatment and then for phenotypic MRD. Leukemic blasts were evaluated using a 8 colors panel including antibodies to CD45, CD19, CD10, CD34, CD38, CD58, CD20 and CD22. MRD was assessed, concomitantly to responses, between 4 and 6 weeks after beginning the salvage regimen using flow cytometry (FACS CANTO II, BD, Biosciences, San Jose, Calif.) performed on bone marrow samples. Two different anti-CD22 antibodies were used. The RFB4 antibody (PE conjugated, Invitrogen, Camarillo, Calif.) and epratuzumab bind competitively to CD22, meaning that in the presence of epratuzumab, RFB4 binding is blocked. By contrast, the SHCL-1 antibody (PE or PerCp-Cy5.5 conjugated, BD Biosciences, San Jose, Calif.) binds to a non-crossblocking epitope and can be used to assess the modulation of the CD22 antigen on the blasts surface. […] Case 2: An example of “negative” MRD. Leukemic blasts (CD10/CD20 negative) are both CD22-RFB4 and CD22-SHCL-1 positive before treatment. After treatment, MRD was <10^−5.

CD22 = CD22 expression on blasts after treatment, flow cytometry with RFB4 and SHCL-1 anti-CD22 antibodies; assay type: cell-based, human; conditions: non-responders and three patients with detectable MRD
Description: (§2) FIG. 1A. Minimal residual disease (MRD) evaluated by flow cytometry. All patients were monitored for CD22 expression before treatment and then for phenotypic MRD. Leukemic blasts were evaluated using a 8 colors panel including antibodies to CD45, CD19, CD10, CD34, CD38, CD58, CD20 and CD22. MRD was assessed, concomitantly to responses, between 4 and 6 weeks after beginning the salvage regimen using flow cytometry (FACS CANTO II, BD, Biosciences, San Jose, Calif.) performed on bone marrow samples. Two different anti-CD22 antibodies were used. The RFB4 antibody (PE conjugated, Invitrogen, Camarillo, Calif.) and epratuzumab bind competitively to CD22, meaning that in the presence of epratuzumab, RFB4 binding is blocked. […]
as §2, with “1B.” for “1A.”, “samples.” for “samples. Two different anti-CD22 antibodies were used. The RFB4 antibody (PE conjugated, Invitrogen, Camarillo, Calif.) and epratuzumab bind competitively to CD22, meaning that in the presence of epratuzumab, RFB4 binding is blocked.”

[3] = in subjects; cited from earlier work
[4] = combination with vincristine and dexamethasone, unclear etiology
[5] = combination with vincristine and dexamethasone, 25 treated patients
[6] = combination with vincristine and dexamethasone, of 25 treated patients
[7] = combination with vincristine and dexamethasone, six Ph+B-ALL patients

epratuzumab: anti-CD22 humanized antibody (Immunomedics, Inc.); given here with vincristine and dexamethasone
tolerability of salvage regimen ([1]; combination with vincristine and dexamethasone, large majority of grade 3/4 toxicities were expected pancytopenia): generally tolerated well
grade-3 renal toxicity, number of cases [1, 4]: One
grade-4 hypertriglyceridemia, number of cases [1, 4]: one
grade-3 allergic toxicity, number of cases ([1]; related to the first epratuzumab infusion): One
CR+CRi rate [2, 5]: 20%
PR rate [2, 5]: 20%
patients who died during treatment due to progression of the disease [2, 5]: Two
number of patients with CR [2, 6]: 4
number of patients with CRi [2, 6]: 1
number of patients with PR [2, 6]: 5
median leukemia-free survival ([2]; combination with vincristine and dexamethasone, patients achieving CR/CRi, range 1-8): 3.8 months
number of patients with CR among Ph+B-ALL patients [2, 7]: 2
number of patients with PR among Ph+B-ALL patients [2, 7]: 1
1-year OS ([2]; combination with vincristine and dexamethasone, whole cohort N=25, estimated): 13+7%
median overall survival (OS) ([2]; combination with vincristine and dexamethasone, whole cohort N=25, range 0.5-43): 4 months
overall response rate ([2]; epratuzumab 360 mg/m2/d iv + vincristine 2 mg iv + dexamethasone 40 mg/d po, days 1, 8, 15, 22, 25 treated patients, evaluated 4-6 weeks post-salvage): 40%
percentage of blasts after treatment (Leukemic blasts; FIG. 1A, Case 1, example of positive MRD): 0.05%
MRD after treatment (Leukemic blasts; FIG. 1B, Case 2, example of negative MRD): < 10^−5
number of CR/CRi patients with undetectable MRD (Leukemic blasts; combination with vincristine and dexamethasone, 5 CR/CRi patients): 2
MRD evaluated by cytometry, individual responder patient (Leukemic blasts; combination with vincristine and dexamethasone, CR/CRi patient with detectable MRD): 1.2%
MRD evaluated by cytometry, individual responder patients (Leukemic blasts; combination with vincristine and dexamethasone, CR/CRi patients with detectable MRD): 5×10^−4 and 7×10^−3
targeting of CD22 on residual blasts (RFB4 negative, SHCL-1 positive) (CD22): persistent targeting of epratuzumab on blasts without loss of the CD22/epratuzumab complex from the cell surface

veltuzumab: humanized IgG1 antibody against CD20
immunogenicity compared with rituximab [3]: less immunogenic

Reference: US20160304611A1, “COMBINATION THERAPY FOR TREATING ADULT PATIENTS WITH RELAPSED/REFRACTORY CD22+ B-CELL ACUTE LYMPHOBLASTIC LEUKEMIA” (Immunomedics, Inc., priority 2015, published 2016)
